Assay type in all cases: cell-based, Mycobacterium smegmatis
The test system of test [1] is M. smegmatis ΔrrnB (bacterial ribosomes). Description: MIC, recombinant M. smegmatis with bacterial (wild-type) ribosomes. Particulars: 72 h at 37° C. From the text:
(§1) The strain used for introduction/selection of mutational alterations was a genetically modified derivative of Mycobacterium smegmatis carrying a single functional chromosomal rRNA operon (Sander et al. Mol. Microbiol. 1996, 22: 841-848). This strain, termed M. smegmatis rrn^−, allowed for the selection of mutational rRNA gene alterations using a plasmid carrying the rRNA gene with the respective mutational alteration.)
(§2) The rRNA gene carried on the plasmid encodes either the complete rRNA operon (Prammananan et al. Antimicrob. Agents Chemother. 1999, 43: 447-453) or a non-functional rRNA gene fragment of approximately 1.0 kb (Pfister et al. Antimicrob. Agents Chemother. 2003, 47: 1496-1502). PCR-mutagenesis in vitro was used to generate the mutagenized rRNA gene fragment. In the case of a partial rRNA gene fragment the mutagenized rRNA gene fragment was cloned into vectors pMV261 or pMV361 (Sander et al. Mol. Microbiol. 2002, 46: 1295-1304; Pfister et al. Antimicrob. Agents Chemother. 2003, 47: 1496-1502) to result in vectors carrying a partial rRNA gene fragment of approximately 1.0 kb with the mutational alteration introduced. In the case of plasmids carrying the complete rRNA operon the mutagenized rRNA gene fragment obtained by PCR was cloned into vectors pMV361 rRNA or pMV261 rRNA using appropriate restriction sites (Prammananan et al. Antimicrob. Agents Chemother. 1999, 43: 447-453). Vectors pMV361 rRNA and pMV261 rRNA carried a complete copy of the rRNA operon from M. smegmatis (Sander et al. Mol. Microbiol. 1997, 26: 469-480). Introduction of mutations into the plasmid encoded rRNA was confirmed by sequencing.
(§3) The single rRNA allelic derivative of M. smegmatis, i.e. M. smegmatis rrn, was used for transformation of the plasmids. The strain was made electro-competent and transformed according to standard techniques and as described previously (Sander et al. Mol. Microbiol. 1997, 26: 469-484). Following primary selection, the plasmid-encoded mutational rRNA gene alteration was transferred into the single chromosomal rRNA operon by means of RecA-mediated homologous recombination (Prammananan at al. Antimicrob. Agents Chemother. 1999, 43: 447-453). Introduction of the mutational rRNA gene alteration into the single functional chromosomal rRNA operon by gene conversion was confirmed by sequence determination.
(§4) Ribosomal drug susceptibility was studied by determining the minimal inhibitory concentrations, as described in detail in Pfister et al. 2003 and 2005 (see above).
(§5) The recombinants carrying the respective mutational alterations in the functional rRNA operon were colony-purified and subjected to determinations of minimal inhibitory concentrations (MIC) to determine ribosomal drug susceptibility. Cultures from single colonies were grown in LB medium supplemented with 0.05% Tween 80 and used for MIC tests in a microtiter plate format. Starting cultures contained 200 μl of bacterial cells at an optical density of 0.025 at 600 nm, and the respective drug was added in twofold series of dilution.
(§6) Key nucleotides which distinguish the prokaryotic from the eukaryotic decoding site are 16S rRNA positions 1408 (bacterial ribosome: A, eukaryotic cytosolic ribosomes: G) and 1491 (bacterial ribosomes: G, eukaryotic cytosolic ribosomes: A, eukaryotic mitochondrial ribosome: C).

Test [2] has as its system M. smegmatis ΔrrnB 1408G (16S rRNA position 1408 G, eukaryotic cytosolic ribosomes). Briefly: MIC, recombinant M. smegmatis with mutant ribosomes 1408G. Particulars: M. smegmatis ΔrrnB 1408G mutant ribosomes; 72 h at 37° C.
Source text: as §1, §2, §3, §4, §5, §6

The subject of test [3] is M. smegmatis ΔrrnB 1491A (16S rRNA position 1491 A, eukaryotic cytosolic ribosomes). Briefly: MIC, recombinant M. smegmatis with mutant ribosomes 1491A. As to conditions: M. smegmatis ΔrrnB 1491A mutant ribosomes; 72 h at 37° C.
Source text: as §1, §2, §3, §4, §5, §6

Test [4] has as its system M. smegmatis ΔrrnB 1491C (16S rRNA position 1491 C, eukaryotic mitochondrial ribosome). Briefly: MIC, recombinant M. smegmatis with mutant ribosomes 1491C. Particulars: M. smegmatis ΔrrnB 1491C mutant ribosomes; 72 h at 37° C.
Source text: as §1, §2, §3, §4, §5, §6

Some results are limits rather than exact numbers.

Turning to `NC[C@@H]1O[C@H](O[C@H]2[C@@H](O)[C@H](O[C@@H]3[C@@H](O)[C@H](N)C[C@H](N)[C@H]3O[C@H]3O[C@@H]4CO[C@@H](c5cccc(Cl)c5)O[C@H]4[C@H](O)[C@H]3N)O[C@@H]2CO)[C@H](N)[C@@H](O)[C@@H]1O` [Compound 5.15, 4′,6′-O-m-chlorobenzylideneparomomycin], in test [1], the “minimal inhibitory concentrations ΔrrnB” value fell in the range of 2 to 4 µg/mL. The “minimal inhibitory concentrations ΔrrnB 1408G” value in test [2] lay within 256 to 512 µg/mL. For the same compound, in test [3], the “minimal inhibitory concentrations ΔrrnB 1491A” value is 512 µg/mL. Further, in test [4], the “minimal inhibitory concentrations ΔrrnB 1491C” value amounted to 512 µg/mL.

On to `NC[C@@H]1O[C@H](O[C@H]2[C@@H](O)[C@H](O[C@@H]3[C@@H](O)[C@H](N)C[C@H](N)[C@H]3O[C@H]3O[C@@H]4CO[C@@H](c5ccccc5[N+](=O)[O-])O[C@H]4[C@H](O)[C@H]3N)O[C@@H]2CO)[C@H](N)[C@@H](O)[C@@H]1O` [Compound 5.16, 4′,6′-O-o-Nitrobenzylideneparomomycin], for which, in test [1], the “minimal inhibitory concentrations ΔrrnB” value was 4 to 16 µg/mL. In addition, in test [2], the “minimal inhibitory concentrations ΔrrnB 1408G” value stood at 512 µg/mL. Besides, the “minimal inhibitory concentrations ΔrrnB 1491A” value in test [3] was determined as 512 µg/mL. For the same compound, the “minimal inhibitory concentrations ΔrrnB 1491C” value in test [4] is greater than 512 µg/mL.

Regarding `CN(C)c1ccc([C@@H]2OC[C@H]3O[C@H](O[C@H]4[C@H](O[C@@H]5O[C@H](CO)[C@@H](O[C@H]6O[C@@H](CN)[C@@H](O)[C@H](O)[C@H]6N)[C@H]5O)[C@@H](O)[C@H](N)C[C@@H]4N)[C@H](N)[C@@H](O)[C@@H]3O2)cc1` [Compound 5.18, 4′,6′-O-p-Dimethylaminobenzylideneparomomycin], the “minimal inhibitory concentrations ΔrrnB” value in test [1] lay in the range of 2 to 4 µg/mL. Further, the “minimal inhibitory concentrations ΔrrnB 1408G” value in test [2] is 256 to 512 µg/mL. Besides, the “minimal inhibitory concentrations ΔrrnB 1491A” value in test [3] stood at 256 µg/mL. Further, the “minimal inhibitory concentrations ΔrrnB 1491C” value in test [4] is greater than 512 µg/mL.

Consider `NC[C@@H]1O[C@H](O[C@H]2[C@@H](O)[C@H](O[C@@H]3[C@@H](O)[C@H](N)C[C@H](N)[C@H]3O[C@H]3O[C@@H]4CO[C@@H](c5cccc6ccccc56)O[C@H]4[C@H](O)[C@H]3N)O[C@@H]2CO)[C@H](N)[C@@H](O)[C@@H]1O` [Compound 5.19, 4′,6′-O-1-Naphthylideneparomomycin], for which, in test [1], the “minimal inhibitory concentrations ΔrrnB” value was 4 to 8 µg/mL. Further, the “minimal inhibitory concentrations ΔrrnB 1408G” value in test [2] amounted to 512 µg/mL. Also, in test [3], the “minimal inhibitory concentrations ΔrrnB 1491A” value lay within 256 to 512 µg/mL. For the same compound, the “minimal inhibitory concentrations ΔrrnB 1491C” value in test [4] came to 256 µg/mL.

With `NC[C@@H]1O[C@H](O[C@H]2[C@@H](O)[C@H](O[C@@H]3[C@@H](O)[C@H](N)C[C@H](N)[C@H]3O[C@H]3O[C@@H]4COC(c5ccco5)O[C@H]4[C@H](O)[C@H]3N)O[C@@H]2CO)[C@H](N)[C@@H](O)[C@@H]1O` (stereo partly shown) [Compound 5.21, 4′,6′-O-2-Furanylideneparomomycin], the “minimal inhibitory concentrations ΔrrnB” value in test [1] lay in the range of 8 to 16 µg/mL. Besides, in test [2], the “minimal inhibitory concentrations ΔrrnB 1408G” value was greater than 512 µg/mL. In addition, in test [3], the “minimal inhibitory concentrations ΔrrnB 1491A” value is greater than 512 µg/mL. In test [4], the “minimal inhibitory concentrations ΔrrnB 1491C” value was greater than 512 µg/mL.

For `NC[C@@H]1O[C@H](O[C@H]2[C@@H](O)[C@H](O[C@@H]3[C@@H](O)[C@H](N)C[C@H](N)[C@H]3O[C@H]3O[C@@H]4COC(c5cccs5)O[C@H]4[C@H](O)[C@H]3N)O[C@@H]2CO)[C@H](N)[C@@H](O)[C@@H]1O` (stereo partly shown) [Compound 5.22, 4′,6′-O-2-Thiophenylideneparomomycin], in test [1], the “minimal inhibitory concentrations ΔrrnB” value fell in the range of 8 to 16 µg/mL. For the same compound, the “minimal inhibitory concentrations ΔrrnB 1408G” value in test [2] is greater than 512 µg/mL. Besides, the “minimal inhibitory concentrations ΔrrnB 1491A” value in test [3] is greater than 512 µg/mL. Besides, the “minimal inhibitory concentrations ΔrrnB 1491C” value in test [4] was greater than 512 µg/mL.

Take `CC1OC[C@H]2O[C@H](O[C@H]3[C@H](O[C@@H]4O[C@H](CO)[C@@H](O[C@H]5O[C@@H](CN)[C@@H](O)[C@H](O)[C@H]5N)[C@H]4O)[C@@H](O)[C@H](N)C[C@@H]3N)[C@H](N)[C@@H](O)[C@@H]2O1` (stereo partly shown) [Compound 5.23, 4′,6′-O-Ethylideneparomomycin]: the “minimal inhibitory concentrations ΔrrnB” value in test [1] came out at 32 µg/mL. Further, the “minimal inhibitory concentrations ΔrrnB 1408G” value in test [2] is greater than 512 µg/mL. Also, the “minimal inhibitory concentrations ΔrrnB 1491A” value in test [3] is greater than 512 µg/mL. Besides, the “minimal inhibitory concentrations ΔrrnB 1491C” value in test [4] was greater than 512 µg/mL.

Regarding `NC[C@@H]1O[C@H](O[C@H]2[C@@H](O)[C@H](O[C@@H]3[C@@H](O)[C@H](N)C[C@H](N)[C@H]3O[C@H]3O[C@@H]4CO[C@@H](Cc5ccccc5)O[C@H]4[C@H](O)[C@H]3N)O[C@@H]2CO)[C@H](N)[C@@H](O)[C@@H]1O` [Compound 5.24], in test [1], the “minimal inhibitory concentrations ΔrrnB” value was 64 µg/mL. Besides, the “minimal inhibitory concentrations ΔrrnB 1408G” value in test [2] is 256 µg/mL. In test [3], the “minimal inhibitory concentrations ΔrrnB 1491A” value is 256 µg/mL. Besides, the “minimal inhibitory concentrations ΔrrnB 1491C” value in test [4] was in the range of 128 to 256 µg/mL.

In the case of `NC[C@@H]1O[C@H](O[C@H]2[C@@H](O)[C@H](O[C@@H]3[C@@H](O)[C@H](N)C[C@H](N)[C@H]3O[C@H]3O[C@@H]4CO[C@@H](C5CCCCC5)O[C@H]4[C@H](O)[C@H]3N)O[C@@H]2CO)[C@H](N)[C@@H](O)[C@@H]1O` [Compound 5.27, 4′,6′-O-Cyclohexylmethylideneparomomycin], in test [1], the “minimal inhibitory concentrations ΔrrnB” value lay in the range of 32 to 64 µg/mL. Further, in test [2], the “minimal inhibitory concentrations ΔrrnB 1408G” value was greater than 512 µg/mL. Further, in test [3], the “minimal inhibitory concentrations ΔrrnB 1491A” value is greater than 512 µg/mL. In test [4], the “minimal inhibitory concentrations ΔrrnB 1491C” value was greater than 512 µg/mL.

On to `NCC1OC(OC2C(CO)OC(OC3C(O)C(N)CC(N)C3OC3OC(COCc4ccccc4)C(O)C(O)C3N)C2O)C(N)C(O)C1O` (stereo not shown) [Compound 15, 6′-O-Benzylparomomycin], for which the “minimal inhibitory concentrations ΔrrnB” value in test [1] was in the range of 32 to 64 µg/mL. Further, in test [2], the “minimal inhibitory concentrations ΔrrnB 1408G” value was greater than 512 µg/mL. Besides, the “minimal inhibitory concentrations ΔrrnB 1491A” value in test [3] was greater than 512 µg/mL. Further, the “minimal inhibitory concentrations ΔrrnB 1491C” value in test [4] was greater than 512 µg/mL.

For the compound `NC[C@@H]1O[C@H](O[C@H]2[C@@H](O)[C@H](O[C@@H]3[C@@H](O)[C@H](N)C[C@H](N)[C@H]3O[C@H]3O[C@H](CO)[C@@H](OCc4ccc(C(F)(F)F)cc4)[C@H](O)[C@H]3N)O[C@@H]2CO)[C@H](N)[C@@H](O)[C@@H]1O` [Compound 19b, 4′-p-(trifluoromethyl)benzylparomomycin], the “minimal inhibitory concentrations ΔrrnB” value in test [1] amounted to 8 µg/mL. Also, the “minimal inhibitory concentrations ΔrrnB 1408G” value in test [2] was greater than 512 µg/mL. The “minimal inhibitory concentrations ΔrrnB 1491A” value in test [3] was greater than 512 µg/mL. Also, the “minimal inhibitory concentrations ΔrrnB 1491C” value in test [4] is “≧512 μg/ml”.

As for `NC[C@@H]1O[C@H](O[C@H]2[C@@H](O)[C@H](O[C@@H]3[C@@H](O)[C@H](N)C[C@H](N)[C@H]3O[C@H]3O[C@H](CO)[C@@H](OCOCc4ccccc4)[C@H](O)[C@H]3N)O[C@@H]2CO)[C@H](N)[C@@H](O)[C@@H]1O` [Compound 19d, 4′-Benzyloxymethylparomomycin], in test [1], the “minimal inhibitory concentrations ΔrrnB” value was found to be 16 µg/mL. Further, in test [2], the “minimal inhibitory concentrations ΔrrnB 1408G” value is greater than 512 µg/mL. Moreover, the “minimal inhibitory concentrations ΔrrnB 1491A” value in test [3] is greater than 512 µg/mL. Also, the “minimal inhibitory concentrations ΔrrnB 1491C” value in test [4] is greater than 512 µg/mL.

In the case of `COc1ccc(COC2C(CO)OC(OC3C(N)CC(N)C(O)C3OC3OC(CO)C(OC4OC(CN)C(O)C(O)C4N)C3O)C(N)C2O)cc1` (stereo not shown) [Compound 19e, 4′-p-Methoxybenzylparomomycin], in test [1], the “minimal inhibitory concentrations ΔrrnB” value stood at 8 µg/mL. Besides, in test [2], the “minimal inhibitory concentrations ΔrrnB 1408G” value was greater than 512 µg/mL. In test [3], the “minimal inhibitory concentrations ΔrrnB 1491A” value is greater than 512 µg/mL. In test [4], the “minimal inhibitory concentrations ΔrrnB 1491C” value was greater than 512 µg/mL.

These data come from US8546343B2, “Aminoglycoside antibiotics targeting bacterial 16S ribosomal RNA” (Eidgenoessische Technische Hochschule Zurich, priority 2007, dated 2013).
